According to US20250154154A1 (Relay Binney Street, 2nd Floor, priority 2020, published 2025):

Target: SRC (Homo sapiens, UniProt P12931)
Assay: SRC Biochemical Assay Protocol (microfluidic mobility shift assay, FLPeptide4 substrate)
Description: SRC Biochemical Assay Protocol
Src biochemical kinase activity was measured using a surrogate fluorescent peptide substrate [FLPeptide4; 5-FAM-EGIYGVLFKKK-CONH2 (PerkinElmer Cat. No. 760348)] with a microfluidic mobility shift assay. Reactions were performed in 384-well flat bottom polystyrene microplates (Corning Cat. No. 3570) at a final volume of 20 μL in 50 mM HEPES pH 7.4, 1 mM EGTA, 10 mM MgCl2, 0.01% Brij-35, 2 mM DTT, 0.05% BSA, 1% DMSO. Inhibition experiments were performed with compounds of the invention varying from 0.0017-100 μM with 0.26 nM SRC, 1.5 μM FLPeptide4, and 50 μM ATP. Specifically, 15 μl 1.3× mixtures of SRC+FLPeptide4+compounds were preincubated for 30 minutes at room temperature followed by addition of 5 μL 4×ATP. Reactions were carried out for 90 minutes then quenched with 40 μl 500 mM EDTA. Phosphorylated peptide product was measured with a mobility shift assay using a LabChip® EZ Reader system (PerkinElmer Cat. No. 122919). Inhibition ratios were calculated relative to neutral controls and IC50 values were obtained from dose response data fitted to a 4-parameter logistic model.

Chain of SRC (P12931 whole entry, species assumed): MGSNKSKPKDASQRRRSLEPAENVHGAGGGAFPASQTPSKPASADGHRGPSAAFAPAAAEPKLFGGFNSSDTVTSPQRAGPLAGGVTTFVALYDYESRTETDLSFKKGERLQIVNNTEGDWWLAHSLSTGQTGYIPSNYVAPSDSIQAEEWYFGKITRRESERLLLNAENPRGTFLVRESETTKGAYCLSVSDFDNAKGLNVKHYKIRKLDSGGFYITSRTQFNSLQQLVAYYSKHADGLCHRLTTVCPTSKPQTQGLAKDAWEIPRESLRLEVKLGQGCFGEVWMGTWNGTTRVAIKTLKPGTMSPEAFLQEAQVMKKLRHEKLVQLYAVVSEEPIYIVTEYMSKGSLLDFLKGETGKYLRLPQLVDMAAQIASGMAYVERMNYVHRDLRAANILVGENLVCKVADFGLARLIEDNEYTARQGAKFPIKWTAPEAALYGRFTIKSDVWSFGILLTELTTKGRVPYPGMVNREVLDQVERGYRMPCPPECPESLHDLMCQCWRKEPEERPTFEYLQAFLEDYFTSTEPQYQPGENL

Row | SMILES | IC50 [nM]
1 | CC(CO)n1c(C#CC2CCN(C(=O)/C=C/CN(C)C)C2)c(-c2ccc(Oc3ccccc3)cc2)c2c(N)ncnc21 (stereo not drawn) [III-32] | 10 to 1000
2 | C=CC(=O)N1CCC(C#Cc2c(-c3ccc(Oc4cccc(F)c4)cc3)c3c(N)ncnc3n2C(C)C)CC1 [Example I-28] | 10 to 1000
3 | C=CC(=O)N1CCC(C#Cc2c(-c3ccc(Oc4ccccc4)cc3)c3c(N)ncnc3n2C)C1 (stereo not drawn) [III-11] | 10 to 1000
4 | CCC(=O)N1CC(N2CCC(C#Cc3c(-c4ccc(Oc5ccccc5)cc4)c4c(N)ncnc4n3C(C)C)CC2)C1 [II-158, 1-(3-(4-((4-amino-7-isopropyl-5-(4-phenoxyphenyl)-7H-pyrrolo[2,3-d]pyrimidin-6-yl)ethynyl)piperidin-1-yl)azetidin-1-yl)propan-1-one] | 10 to 1000
5 | CC(C)n1c(C#CC2CCN(C#N)CC2)c(-c2ccc(Oc3ccccc3)cc2)c2c(N)ncnc21 [Example I-2] | 10 to 1000
6 | C=CC(=O)N1CCC(C#Cc2c(-c3ccc(Nc4ccccn4)cc3)c3c(N)ncnc3n2C(C)C)CC1 [Example I-9] | 10 to 1000
7 | COC(=O)C(C)n1c(C#CC2CCNCC2)c(-c2ccc(Oc3ccccc3)cc2)c2c(N)ncnc21 (stereo not drawn) [II-154, methyl 2-(4-amino-5-(4-phenoxyphenyl)-6-(piperidin-4-ylethynyl)-7H-pyrrolo[2,3-d]pyrimidin-7-yl)propanoate] | 10 to 1000
8 | C=CC(=O)N1CC(N2CCC(C#Cc3c(-c4ccc(Oc5ccccn5)cc4)c4c(N)ncnc4n3C(C)C)CC2)C1 [Example I-47] | 10 to 1000
9 | C=CC(=O)N1CC(C#Cc2c(-c3ccc(Oc4ccccc4)cc3)c3c(N)ncnc3n2C(C)C)C1 [Example I-3] | ≤ 10
10 | C=CS(=O)(=O)N1CC(C#Cc2c(-c3ccc(Oc4ccccc4)cc3)c3c(N)ncnc3n2C(C)C)C1 [Example I-17] | ≤ 10
11 | C=CC(=O)N1CCC(C#Cc2c(-c3ccc(Oc4cnccn4)cc3)c3c(N)ncnc3n2C(C)C)CC1 [Example I-14] | 10 to 1000
12 | Nc1ncnc2c1c(-c1ccc(Oc3ccccc3)cc1)c(C#CC1CCN(C(=O)/C=C/CN3CCOCC3)CC1)n2[C@H]1CCOC1 [III-36] | 10 to 1000
13 | C=CC(=O)N1C[C@@H]2[C@@H](C#Cc3c(-c4ccc(Oc5cccc(C)n5)c(OC)c4)c4c(N)nccc4n3CCOC)[C@@H]2C1 [II-78] | 1000 to 10000
14 | CC(C(=O)O)N1CCC(C#Cc2c(-c3ccc(Oc4ccccc4)cc3)c3c(N)ncnc3n2C(C)C)CC1 (stereo not drawn) [II-149, 2-(4-((4-amino-7-isopropyl-5-(4-phenoxyphenyl)-7H-pyrrolo[2,3-d]pyrimidin-6-yl)ethynyl)piperidin-1-yl)propanoic acid] | ≤ 10
15 | C=CC(=O)N1CCC(C#Cc2c(-c3ccc(Oc4ccccn4)cc3)c3c(N)ncnc3n2C(C)C)CC1 [Example I-12] | 10 to 1000
16 | C=CC(=O)N1CCC(C#Cc2c(-c3ccc(Oc4ccccc4)cc3)c3c(N)ncnc3n2CCCN(C)C)C1 (stereo not drawn) [III-15] | 10 to 1000
17 | C=CC(=O)N1CCC(C#Cc2c(-c3ccc(Oc4cccc(C)c4)cc3)c3c(N)ncnc3n2C(C)C)CC1 [Example I-21] | 10 to 1000
18 | CN(C)C/C=C/C(=O)N1CC2(C1)CC(O)(C#Cc1c(-c3ccc(Oc4ccccc4)cc3)c3c(N)ncnc3n1C)C2 [III-26] | 10 to 1000
19 | C=CC(=O)N1CCC(C#Cc2c(-c3ccc(OCC4CCCC4)cc3)c3c(N)ncnc3n2C(C)C)CC1 [Example I-16] | 10 to 1000
20 | CN(C)C/C=C/C(=O)N1CCC(C#Cc2c(-c3ccc(Oc4ccccc4)cc3)c3c(N)ncnc3n2C2CCOC2)CC1 (stereo not drawn) [III-10] | 10 to 1000
21 | C=CC(=O)N1CCC(O)(C#Cc2c(-c3ccc(Oc4ccccc4)cc3)c3c(N)ncnc3n2C)C1 (stereo not drawn) [III-13] | ≤ 10
22 | CC(C)n1c(C#CC2CCN(C)CC2)c(-c2ccc(Oc3ccccc3)cc2)c2c(N)ncnc21 [II-141, 7-isopropyl-6-((1-methylpiperidin-4-yl)ethynyl)-5-(4-phenoxyphenyl)-7H-pyrrolo[2,3-d]pyrimidin-4-amine] | ≤ 10
23 | C=CC(=O)N1CCC(C#Cc2c(-c3ccc(Oc4ccccc4)cc3)c3c(N)ncnc3n2[C@@H](C)CO)CC1 (single isomer, unassigned) [Example I-26] | 10 to 1000
24 | C=CC(=O)N1CCC(C#Cc2c(-c3ccc(Oc4ccccc4)cc3)c3c(N)ncnc3n2[C@H](C)CO)CC1 (single isomer, unassigned) [Example I-24] | 10 to 1000
25 | CN(C)C/C=C/C(=O)Nc1ncnc2c1c(-c1ccc(Oc3ccccc3)cc1)c(C#CC1CNC1)n2C1CCOC1 (stereo not drawn) [III-9] | 10 to 1000
26 | C=CC(=O)N1CCC(C#Cc2c(-c3ccc(C(C#N)c4ccccc4)cc3)c3c(N)ncnc3n2C(C)C)CC1 (stereo not drawn) [Example I-30] | 10 to 1000
27 | C=CS(=O)(=O)N1CCC(C#Cc2c(-c3ccc(Oc4ccccc4)cc3)c3c(N)ncnc3n2C(C)C)CC1 [Example I-37] | ≤ 10
28 | C=CC(=O)N1CCC(C#Cc2c(-c3ccc(Oc4ccccc4)nc3)c3c(N)ncnc3n2C(C)C)CC1 [Example I-10] | 10 to 1000
29 | CCC(=O)N1CCC(C#Cc2c(-c3ccc(Oc4ccccc4)cc3)c3c(N)ncnc3n2C2CCOC2)CC1 (stereo not drawn) [II-156, 1-(4-((4-amino-5-(4-phenoxyphenyl)-7-(tetrahydrofuran-3-yl)-7H-pyrrolo[2,3-d]pyrimidin-6-yl)ethynyl)piperidin-1-yl)propan-1-one] | 10 to 1000
30 | CC(C)n1c(C#CC2CCC(N)CC2)c(-c2ccc(Oc3ccccc3)cc2)c2c(N)ncnc21 (stereo not drawn) [II-151, 6-((4-aminocyclohexyl)ethynyl)-7-isopropyl-5-(4-phenoxyphenyl)-7H-pyrrolo[2,3-d]pyrimidin-4-amine] | ≤ 10

The next lines start with the values.

Row | IC50 [nM] | SMILES
31 | 10 to 1000 | C=CC(=O)N1CC[C@H](C#Cc2c(-c3ccc(Oc4ccccc4)cc3)c3c(N)ncnc3n2C)C[C@@H]1C [III-77]
32 | 10 to 1000 | C=CC(=O)N1CCC(N2CC(C#Cc3c(-c4ccc(Oc5ccccc5)cc4)c4c(N)ncnc4n3C)C2)C[C@@H]1C (stereo partly drawn) [III-47]
33 | ≤ 10 | C=CC(=O)N1CCC(N2CC(C#Cc3c(-c4ccc(Oc5ccccc5)cc4)c4c(N)ncnc4n3[C@@H]3CCOC3)C2)CC1 [III-55]
34 | ≤ 10 | C=CC(=O)N1CCC(N2CC(C#Cc3c(-c4ccc(Oc5ccccc5)cc4)c4c(N)ncnc4n3C3CCOC3)C2)CC1 (stereo not drawn) [III-53]
35 | 10 to 1000 | C=CC(=O)N1CCC(N2CC(C#Cc3c(-c4ccc(Oc5ccccc5)cc4)c4c(N)ncnc4n3C)C2)C[C@@H]1CO (stereo partly drawn) [III-67]
36 | 10 to 1000 | Cn1c(C#CC2CN(C(=O)/C=C/CN3CC(O)C3)C2)c(-c2ccc(Oc3ccccc3)cc2)c2c(N)ncnc21 [III-78]
37 | 10 to 1000 | C=C(C)C(=O)N1CCC(C#Cc2c(-c3ccc(Oc4ccccc4)cc3)c3c(N)ncnc3n2[C@H]2CCOC2)CC1 [III-37]
38 | 10 to 1000 | Cn1c(C#CC2CCN(C(=O)/C=C/CN3CCOCC3)CC2)c(-c2ccc(Oc3ccccc3)cc2)c2c(N)ncnc21 [III-41]
39 | 10 to 1000 | C=CC(=O)N1CCC(N2CCC(C#Cc3c(-c4ccc(Oc5ccccc5)cc4)c4c(N)ncnc4n3C)C2)CC1 (stereo not drawn) [III-73]
40 | 10 to 1000 | C=CC(=O)NC1CCN(C2CC(C#Cc3c(-c4ccc(Oc5ccccc5)cc4)c4c(N)ncnc4n3C)C2)CC1 (stereo not drawn) [III-51]
41 | 10 to 1000 | CN(C)C/C=C/C(=O)N1CC(C#Cc2c(-c3ccc(Oc4ccccc4)cc3)c3c(N)ncnc3n2C)C1 [III-84]
42 | 10 to 1000 | C=CC(=O)N1CCC(N2CC(F)(C#Cc3c(-c4ccc(Oc5cccc(C)n5)c(OC)c4)c4c(N)ncnc4n3C)C2)C[C@H]1COC (stereo partly drawn) [III-92]
43 | ≤ 10 | C=CC(=O)N1CCC(N2CC(C#Cc3c(-c4ccc(Oc5ccccc5)cc4)c4c(N)ncnc4n3[C@H]3CCOC3)C2)CC1 [III-63]
44 | 10 to 1000 | C=CC(=O)N1CCC(N2CC(C#Cc3c(-c4ccc(Oc5ccccc5)cc4)c4c(N)ncnc4n3C(C)CO)C2)CC1 (stereo not drawn) [III-60]
45 | 1000 to 10000 | C=CC(=O)NCC#Cc1c(-c2ccc(Oc3ncccn3)cc2)c2c(N)ncnc2n1C [III-95]
46 | 1000 to 10000 | C=CC(=O)N1CCC(O)(C#Cc2c(-c3ccc(Oc4ccccc4)c(C#N)c3)c3c(N)ncnc3n2C)CC1 [III-54]
47 | 10 to 1000 | C=CC(=O)N[C@H]1CC[C@@H](C#Cc2c(-c3ccc(Oc4ccccc4)cc3)c3c(N)ncnc3n2C)CC1 [III-57]
48 | ≤ 10 | C=CC(=O)N1C[C@@H]2[C@@H](C#Cc3c(-c4ccc(Oc5ccccc5)c5c4OCO5)c4c(N)ncnc4n3C)[C@@H]2C1 [III-88]
49 | 10 to 1000 | C=CC(=O)N1CC[C@@H](C#Cc2c(-c3ccc(Oc4ccccc4)cc3)c3c(N)ncnc3n2C)C[C@@H]1C [III-79]
50 | 10 to 1000 | C=CC(=O)N1CCCC(N2CC(C#Cc3c(-c4ccc(Oc5ccccc5)cc4)c4c(N)ncnc4n3C)C2)CC1 (stereo not drawn) [III-56]
51 | ≤ 10 | C=CC(=O)N1CCC(N2CC(C#Cc3c(-c4ccc(Oc5ccccc5)cc4)c4c(N)ncnc4n3[C@H]3C[C@@H](O)C3)C2)CC1 [III-70]
52 | 10 to 1000 | COc1cc(-c2c(C#CC3CN(C)C3)n(C)c3ncnc(N)c23)ccc1Oc1cccc(C)n1 [III-86]
53 | 10 to 1000 | C=CC(=O)N1CCC(N2CC(C#Cc3c(-c4ccc(Oc5ccccn5)c(OC)c4)c4c(N)ncnc4n3C)C2)C(S(C)(=O)=O)C1 (stereo not drawn) [III-87]
54 | 10 to 1000 | C=CC(=O)N1CCC(N2CC(C#Cc3c(-c4ccc(Oc5ccccc5)cc4)c4c(N)ncnc4n3C)C2)C[C@H]1CO (stereo partly drawn) [III-64]
55 | 10 to 1000 | C=CC(=O)N1CC[C@H](N2CC(C#Cc3c(-c4ccc(Oc5ccccc5)cc4)c4c(N)ncnc4n3C)C2)[C@@H](C)C1 [III-69]
56 | 10 to 1000 | C=C(C)C(=O)N1CCC(C#Cc2c(-c3ccc(Oc4ccccc4)cc3)c3c(N)ncnc3n2C)CC1 [III-40]
57 | 10 to 1000 | C=CC(=O)N1CCC(N2CC(C#Cc3c(-c4ccc(Oc5cccc(C)n5)cc4)c4c(N)ncnc4n3C)C2)CC1 [III-75]
